Paper PMC4126848 (Epilepsia, 2014)
“And” between values parts separate entries of the source, which are not always exact repeats. Identical values can stand only once. Like-named read-outs stand apart in the source and are kept apart here.

Tests used:
[1] = tested on: hippocampal pyramidal neurons isolated from Scn2a^Q54 mice; assay type: cell-based, mouse; settings: 1 µM
[2] = tested on: hippocampal pyramidal neurons isolated from Scn2a^Q54 mice; assay type: cell-based, mouse; settings: 1 µM; membrane potential clamped to −80 mV
Scn2a^Q54 mice [3] = test: Anticonvulsant activity: behavioral seizure frequency in Scn2a^Q54 mice; assay type: in vivo, mouse; settings: for reduction in seizure frequency: Scn2a^Q54 mice
C57BL/6J male mice = test: Maximal electroshock-induced seizures; assay type: in vivo, mouse; settings: oral gavage two hours prior to testing; probit analysis
Scn2a^Q54 mice [4] = test: Survival analysis of Scn2a^Q54 mice; assay type: in vivo, mouse; settings: GS967 chow 1.5 mg/kg/d from postnatal day 21; control 20%
Scn2a^Q54 mice [5] = test: Cresyl Violet staining for hilar neuron loss in the dentate gyrus; assay type: in vivo, mouse; settings: GS967 1.5 mg/kg/d from P21-P60; female mice
Scn2a^Q54 mice [6] = test: Tolerability observations in mice; assay type: in vivo, mouse; settings: phenytoin 30 mg/kg i.p.; GS967 in chow
[7] = tested on: cardiac ion channels and several other molecular targets (more than 600 studied targets); settings: 1 µM; cited from earlier work
[8] = Plasma and brain concentrations and pharmacokinetics in mice; settings: for concentration at 30 min: male, Scn2a^Q54, mouse, intraperitoneal, 40 mg/kg
[9] = mouse, in vivo

Compound	persistent current as % of peak current amplitude ([1]; control 1.2 ± 0.4%)	peak current density ([1]; not significantly different from control)	reduction of spontaneous action potential firing frequency [2]	reduction in seizure frequency (Scn2a^Q54 mice [3]; GS967 0.375 mg/kg/d orally in chow)	reduction in seizure frequency (Scn2a^Q54 mice [3]; GS967 1.5 mg/kg/d orally in chow, two days of treatment)	% Change in Seizure Frequency (Scn2a^Q54 mice [3]; GS967 1.5 mg/kg/day orally in chow, male Scn2a^Q54 mice)	ED50 for protection against MES-induced tonic hindlimb extension (C57BL/6J male mice)	mice alive at 12 weeks (Scn2a^Q54 mice [4])	hilar neuron loss (Cresyl Violet, qualitative) (Scn2a^Q54 mice [5])	sedation (Scn2a^Q54 mice [6])	cross reactivity with cardiac ion channels and other molecular targets [7]	[Plasma] ([8]; GS967 1.5 mg/kg/day orally in chow, immediately after post-treatment period)	brain penetration ([8]; mice)	rate of elimination ([8]; mouse, in vivo)	reduction in seizure frequency (Scn2a^Q54 mice [3]; ranolazine 40 mg/kg i.p.)	brain penetration [9]	concentration at 30 min ([8]; plasma)	concentration at 30 min ([8]; whole brain)	half-life ([8]; mouse, plasma)
FC(F)(F)Oc1ccc(-c2ccc3nnc(C(F)(F)F)n3c2)cc1 [GS967]	0.1 ± 0.1%	172.3 ± 46.2 pA/pF	98.8 ± 0.1%	50%	greater than 90%	−92 ± 4%	0.1 mg/kg	90%	no overt hilar neuron loss	no sedation was observed	no cross reactivity	0.6 ± 0.1 µM	effectively cross the blood-brain barrier	slower rate of elimination than ranolazine	–	–	–	–	–
O=C1NC(=O)C(c2ccccc2)(c2ccccc2)N1 [Phenytoin, reference compound]	–	–	36.7 ± 10.1%	–	–	–	–	–	–	exhibited sedation characterized by lack of ambulation	–	–	–	–	–	–	–	–	–
COc1ccccc1OCC(O)CN1CCN(CC(=O)Nc2c(C)cccc2C)CC1 (stereo not drawn) [Ranolazine, reference compound]	–	–	–	–	–	–	–	–	–	–	–	–	–	–	~ 50% and 48%	low brain penetration	19.3 ± 0.8 µM	4.9 ± 0.1 µM	~15 min
